Data on one compound can be found in paper PMC3326641 (Journal of Medicinal Chemistry, 2012).

In the data set the target is T1, TrxR (rat liver thioredoxin reductase) (Rattus norvegicus, UniProt O89049).
T1 sequence (O89049 1-499): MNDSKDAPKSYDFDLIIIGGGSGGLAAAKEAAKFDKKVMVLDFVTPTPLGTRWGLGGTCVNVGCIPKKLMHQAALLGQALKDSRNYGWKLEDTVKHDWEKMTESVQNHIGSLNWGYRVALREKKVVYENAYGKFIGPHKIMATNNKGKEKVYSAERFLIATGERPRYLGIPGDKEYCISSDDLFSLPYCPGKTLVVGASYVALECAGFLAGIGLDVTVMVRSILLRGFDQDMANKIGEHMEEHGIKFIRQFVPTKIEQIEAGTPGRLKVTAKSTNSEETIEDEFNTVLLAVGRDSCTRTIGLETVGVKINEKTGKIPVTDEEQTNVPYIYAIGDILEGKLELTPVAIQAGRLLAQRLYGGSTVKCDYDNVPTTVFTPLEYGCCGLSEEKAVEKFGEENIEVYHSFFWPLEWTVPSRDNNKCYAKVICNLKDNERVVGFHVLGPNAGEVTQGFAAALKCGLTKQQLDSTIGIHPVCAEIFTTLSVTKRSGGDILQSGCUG
The experiment in a line: DTNB reduction, absorbance at […] nm. It is filed as biochemical.

The compound `CC(C)(C)OC(=O)n1ccc2c[c]([Au-][P+](C3CCCCC3)(C3CCCCC3)C3CCCCC3)ccc21` [compound 4, [5-{Tricyclohexylphosphine gold(I)}-tert-butyl 1H-indole-1-carboxylate]] came in with an inhibition at 40 µM of 39%.
